Results as given in article PMC4504079, “Andrographolide sodium bisulphite-induced inactivation of urease: inhibitory potency, kinetics and mechanism” (BMC Complementary and Alternative Medicine, 2015).

Tests used:
jack bean urease (JBU) = jack bean urease (JBU) (Canavalia ensiformis, UniProt P07374); test: urease activity assay (modified Berthelot ammonia determination), slow-binding progress curves; assay type: biochemical
[1] = biological target: T1, Helicobacter pylori urease (HPU) (Helicobacter pylori, UniProt P69996); test: urease activity assay on desalted crude bacterial extract (modified Berthelot); assay type: biochemical
T1 construct: gene ureB; crude urease solution from H. pylori ATCC 43504
T1 sequence (P69996 whole entry): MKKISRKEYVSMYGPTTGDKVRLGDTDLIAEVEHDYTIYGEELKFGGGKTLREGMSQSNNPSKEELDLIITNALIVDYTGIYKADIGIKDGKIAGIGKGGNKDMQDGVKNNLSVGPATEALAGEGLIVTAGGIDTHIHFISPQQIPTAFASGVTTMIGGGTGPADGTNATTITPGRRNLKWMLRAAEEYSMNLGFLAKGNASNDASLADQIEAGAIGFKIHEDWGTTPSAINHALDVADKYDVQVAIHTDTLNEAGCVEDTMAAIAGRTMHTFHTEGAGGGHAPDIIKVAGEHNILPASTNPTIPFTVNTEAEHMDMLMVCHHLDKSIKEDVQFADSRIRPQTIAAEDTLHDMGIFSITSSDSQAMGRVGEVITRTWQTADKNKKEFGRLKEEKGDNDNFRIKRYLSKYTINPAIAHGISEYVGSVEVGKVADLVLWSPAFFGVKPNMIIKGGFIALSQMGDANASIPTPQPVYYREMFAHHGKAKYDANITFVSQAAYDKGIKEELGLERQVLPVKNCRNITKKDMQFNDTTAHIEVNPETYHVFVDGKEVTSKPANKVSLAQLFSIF

Chain of jack bean urease (JBU) (P07374 whole entry): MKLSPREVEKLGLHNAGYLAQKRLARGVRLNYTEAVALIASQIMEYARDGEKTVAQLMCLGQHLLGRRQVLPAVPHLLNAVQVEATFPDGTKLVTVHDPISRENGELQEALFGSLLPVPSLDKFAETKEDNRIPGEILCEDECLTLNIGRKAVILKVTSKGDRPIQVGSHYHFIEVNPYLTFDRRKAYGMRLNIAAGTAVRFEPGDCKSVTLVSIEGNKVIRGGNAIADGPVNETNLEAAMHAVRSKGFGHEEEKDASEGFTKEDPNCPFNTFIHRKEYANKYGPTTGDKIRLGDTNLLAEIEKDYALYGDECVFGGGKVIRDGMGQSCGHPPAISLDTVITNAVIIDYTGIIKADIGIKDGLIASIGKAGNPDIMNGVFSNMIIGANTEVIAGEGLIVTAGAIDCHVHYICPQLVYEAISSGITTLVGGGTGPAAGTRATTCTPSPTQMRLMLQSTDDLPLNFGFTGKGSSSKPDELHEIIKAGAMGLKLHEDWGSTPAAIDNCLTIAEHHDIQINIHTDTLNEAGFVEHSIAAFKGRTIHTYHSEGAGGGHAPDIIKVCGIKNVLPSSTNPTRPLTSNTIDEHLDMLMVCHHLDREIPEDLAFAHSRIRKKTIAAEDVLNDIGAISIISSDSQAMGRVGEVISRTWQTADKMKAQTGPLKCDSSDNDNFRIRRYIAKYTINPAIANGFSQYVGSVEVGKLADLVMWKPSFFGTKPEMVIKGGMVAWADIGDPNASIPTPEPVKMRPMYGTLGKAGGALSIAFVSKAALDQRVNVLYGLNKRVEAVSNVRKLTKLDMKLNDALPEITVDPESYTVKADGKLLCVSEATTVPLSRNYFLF

With `C=C1CC[C@@H]2[C@](C)(CO)[C@H](O)CC[C@@]2(C)[C@@H]1CC(C1=CCOC1=O)S(=O)(=O)O` (some centres unmarked) [ASB, Andrographolide sodium bisulphite] the IC50 (jack bean urease (JBU)) was 3.28 ± 0.13 mM and the IC50 [1] was 3.17 ± 0.34 mM.
